Assay results from patent publication US20030113322A1, “CDR-H1-derived peptide CB11, pharmaceutical compositions made therefrom and methods of treating disorders in mammals” (priority 2001, published 2003).
Positions of bridges follow the written chain, without caps; N, C: chain ends. Residues, ends and D or L forms follow the SMILES beside them. No end group written: not given here.

Tests used:
[1] = tested on: HeLa P4 indicator cells infected with HIV-1Lai; experiment: HIV-1 promoter activation assay (LTR-driven β-galactosidase); type: cell-based
Protocol: (§1) HeLa P4 indicator cells (8×10^4 cells/ml) were cultured in medium supplemented or not with infectious HIV-1Lai in the presence or absence of antibodies for three days, harvested and lysed. β-galactosidase activity was then determined as previously described by measuring the absorbance at 410 nm.
as §1, with “with 1000 TCID50 of” for “with”, “peptides or mAb” for “antibodies”, “3” for “three”, “lysed. The” for “lysed.”, “activities were” for “activity was”

[2] = tested on: pdb10F T cells stimulated by pep24-pulsed EBV-Lu antigen-presenting cells; experiment: IL-2 secretion assay following antigen presentation; type: cell-based, murine; conditions: for inhibition of IL2 secretion: Example 2, Table 1 (table not given)
[3] = type: in vitro ADME
Description: A relatively high concentration of peptides is preferred to achieve efficient biological activity with regard to the efficient antibody dose. […] We believe that use of D-amino acids for peptide synthesis would improve their metabolic stability.

His6-sCD4 = molecular target: T1, His6-sCD4 (Homo sapiens, UniProt P01730); experiment: ELISA binding of His6-sCD4 to coated cyclic PDPs; conditions: 20 nM His6-sCD4, FIG. 8
T1 construct: codons 1 to 6, and the anti-sense primer SCD4RTB (5′-[…]), which contains the reverse complement of codons 367 to 372; made in house; host or cells: Spodoptera frugiperda Sf9 cells, baculovirus (p119L vector, P10 promoter)
Protocol: Three replicates corresponding to 10-fold serial dilutions of the nine cyclic PDPs (CB1-CB9) were coated overnight at 4° C. onto 96-well ELISA plates (Nunc. Paisley, UK) with an initial peptide concentration of 50 μM. Four washes in 160 mM PBS, pH 7.2, containing 0.1% Tween 20 (PBS-T) were performed before and after saturating the wells with 1% non-fat dry milk in PBT-T for 1 h at 37° C. Thereafter, 100 μl of 20 nM His6-sCD4 was added to each well. Following a 2 h incubation and four washes in PBS-T, bound His6-sCD4 was detected by addition of 100 μl of a 1:2000 solution of peroxidase-conjugated anti-His6 mAb (Sigma) and subsequent addition of peroxidase substrate. Absorbance was measured at 490 nm.

[4] = peptide diluted in 20% acetonitrile buffer

Row | Compound | inhibition of HIV-1Lai LTR-driven β-galactosidase expression [1, 4] | inhibition of HIV-1Lai LTR-driven β-galactosidase expression ([1]; Example 2, 3 days, FIG. 10A) | CD4 binding of coated cyclic peptide (His6-sCD4) | inhibition of IL2 secretion [2] | also measured
1 | CC(C)C[C@@H]1NC(=O)[C@@H](NC(=O)[C@@H](N)CCCCN)CSSC[C@@H](C(=O)N[C@@H](CCCCN)C(N)=O)NC(=O)[C@H](CO)NC(=O)[C@H](CCC(N)=O)NC(=O)[C@H](CCCNC(=N)N)NC(=O)[C@H](C(C)C)NC(=O)[C@H](Cc2c[nH]c3ccccc23)NC(=O)[C@H](Cc2c[nH]cn2)NC(=O)[C@H](C(C)C)NC(=O)CNC(=O)[C@H](Cc2ccccc2)NC(=O)[C@H]([C@@H](C)O)NC(=O)[C@H]([C@@H](C)O)NC1=O [CB1] (H-KCLTTFGVHWVRQSCK-NH2; disulfide 2-15; N-terminus and C-terminus assumed) | no inhibition | – | – | – | inhibition of HIV-1Lai LTR-driven β-galactosidase expression ([1]; 50 μM peptide, 3 days, FIG. 10A): significant inhibition; IC50 ([1]; FIG. 10B, read-out: IC50 of inhibition of β-galactosidase activity): ~15 µM; concentration range with inhibitory activity of IL2 secretion ([2]; Example 2): 125 to 250 µM; decrease in binding of CD4 to peptide after pre-incubation [3]: 50%
2 | GSDQWNKMQYYP (not fully specified (N-terminus, C-terminus, bridges); also: cyclized (bridge not given here)) [ScCM9, scrambled form of PDP CM9, Lys-Cys added at both termini, reference compound] | – | did not affect | non-reactivity | no inhibition | –
3 | FGDYYCLQYASS (not fully specified (N-terminus, C-terminus, bridges); also: cyclized (bridge not given here)) [Dig97c, unrelated peptide derived from the CDR-L3 region of the anti-digoxin 1C10 mAb, reference compound] | – | did not affect | – | – | –
4 | CC[C@H](C)[C@@H]1NC(=O)[C@@H](NC(=O)[C@@H](N)CCCCN)CSSC[C@@H](C(=O)N[C@@H](CCCCN)C(N)=O)NC(=O)[C@H](CCC(N)=O)NC(=O)[C@H](CCCCN)NC(=O)[C@H](CCC(N)=O)NC(=O)[C@H](CCC(N)=O)NC(=O)[C@H](Cc2ccc(O)cc2)NC(=O)[C@H](Cc2c[nH]c3ccccc23)NC(=O)[C@H](C)NC(=O)[C@H](CC(C)C)NC(=O)[C@H](Cc2ccc(O)cc2)NC(=O)[C@H](CO)NC(=O)[C@H](Cc2ccc(O)cc2)NC1=O [CB8] (H-KCIYSYLAWYQQKQCK-NH2; disulfide 2-15) | lack of activity | – | – | lack of activity | –
5 | KEEICEVEDQTY (not fully specified (N-terminus, C-terminus, bridges); also: cyclized (bridge not given here)) [ScCDR3-like, scrambled form of the CD4-derived CDR3-like peptide] | – | – | non-reactivity | – | –
